Test results taken from ChEMBL document CHEMBL5303573, “Mapping human microbiome drug metabolism by gut bacteria and their genes” (Nature, 2019).

Assays:
[1] = The drug is tested on Bacteroides dorei strain: DSM17855 for biotransformation. The drug concentrations were measured before and after a 12-h incubation by liquid-chromatography-coupled mass spectrometry (LC–MS); details: phocaeicola dorei, 2 µM
[2] = The drug is tested on Enterococcus faecalis strain: V583 for biotransformation. The drug concentrations were measured before and after a 12-h incubation by liquid-chromatography-coupled mass spectrometry (LC–MS); details: 2 µM
[3] = roseburia intestinalis, 12 h, 2 µM
Description: The drug is tested on Roseburia intestinalis strain: L1-82 for biotransformation. The drug concentrations were measured before and after a 12-h incubation by liquid-chromatography-coupled mass spectrometry (LC–MS)

[4] = The drug is tested on Coprococcus comes strain: ATCC27758 for biotransformation. The drug concentrations were measured before and after a 12-h incubation by liquid-chromatography-coupled mass spectrometry (LC–MS); assay type: ADME; parameters: dose 2 uM, timepoint 0 vs 12 hours; details: 2 µM
[5] = bacteroides thetaiotaomicron, 12 h, 2 µM
Description: The drug is tested on Bacteroides thetaiotaomicron strain: VPI-5482 for biotransformation. The drug concentrations were measured before and after a 12-h incubation by liquid-chromatography-coupled mass spectrometry (LC–MS)

[6] = The drug is tested on Bacteroides finegoldii strain: DSM17565 for biotransformation. The drug concentrations were measured before and after a 12-h incubation by liquid-chromatography-coupled mass spectrometry (LC–MS); details: 2 µM
[7] = The drug is tested on Blautia hansenii strain: DSM20583 for biotransformation. The drug concentrations were measured before and after a 12-h incubation by liquid-chromatography-coupled mass spectrometry (LC–MS); details: 2 µM
[8] = bacteroides thetaiotaomicron, 12 h, 2 µM; remark: listed apart in the source
Description: The drug is tested on Bacteroides thetaiotaomicron strain: 7330 for biotransformation. The drug concentrations were measured before and after a 12-h incubation by liquid-chromatography-coupled mass spectrometry (LC–MS)

[9] = The drug is tested on Bacteroides vulgatus strain: ATCC8482 for biotransformation. The drug concentrations were measured before and after a 12-h incubation by liquid-chromatography-coupled mass spectrometry (LC–MS); details: phocaeicola vulgatus, 2 µM
[10] = victivallis vadensis, 12 h, 2 µM
Description: The drug is tested on Victivallis vadensis strain: ATCC BAA-548 for biotransformation. The drug concentrations were measured before and after a 12-h incubation by liquid-chromatography-coupled mass spectrometry (LC–MS)

[11] = The drug is tested on Bacteroides coprophilus strain: DSM18228 for biotransformation. The drug concentrations were measured before and after a 12-h incubation by liquid-chromatography-coupled mass spectrometry (LC–MS); details: 2 µM
[12] = The drug is tested on Bifidobacterium ruminantium strain: fecal isolate for biotransformation. The drug concentrations were measured before and after a 12-h incubation by liquid-chromatography-coupled mass spectrometry (LC–MS); details: 2 µM
[13] = The drug is tested on Bacteroides uniformis strain: ATCC8492 for biotransformation. The drug concentrations were measured before and after a 12-h incubation by liquid-chromatography-coupled mass spectrometry (LC–MS); details: 2 µM
[14] = bacteroides fragilis, 12 h, 2 µM
Description: The drug is tested on Bacteroides fragilis strain: DS-208 for biotransformation. The drug concentrations were measured before and after a 12-h incubation by liquid-chromatography-coupled mass spectrometry (LC–MS)

[15] = The drug is tested on Parabacteroides merdae strain: ATCC43184 for biotransformation. The drug concentrations were measured before and after a 12-h incubation by liquid-chromatography-coupled mass spectrometry (LC–MS); details: 2 µM
[16] = The drug is tested on Escherichia coli strain: BW25113 for biotransformation. The drug concentrations were measured before and after a 12-h incubation by liquid-chromatography-coupled mass spectrometry (LC–MS); details: 2 µM
[17] = The drug is tested on Alistipes indistinctus strain: DSM22520 for biotransformation. The drug concentrations were measured before and after a 12-h incubation by liquid-chromatography-coupled mass spectrometry (LC–MS); details: 2 µM
[18] = The drug is tested on Clostridium ramosum strain: DSM1402 for biotransformation. The drug concentrations were measured before and after a 12-h incubation by liquid-chromatography-coupled mass spectrometry (LC–MS); details: thomasclavelia ramosa, 2 µM
[19] = The drug is tested on Enterobacter cancerogenus strain: ATCC35316 for biotransformation. The drug concentrations were measured before and after a 12-h incubation by liquid-chromatography-coupled mass spectrometry (LC–MS); details: 2 µM
[20] = The drug is tested on Anaerococcus hydrogenalis strain: DSM7454 for biotransformation. The drug concentrations were measured before and after a 12-h incubation by liquid-chromatography-coupled mass spectrometry (LC–MS); details: 2 µM

| SMILES | Bacterial Biotransformation [1] | Bacterial Biotransformation [2] | Bacterial Biotransformation [3] | Bacterial Biotransformation [4] | Bacterial Biotransformation [5] | Bacterial Biotransformation [6] | Bacterial Biotransformation [7] | Bacterial Biotransformation [8] | Bacterial Biotransformation [9] | Bacterial Biotransformation [10] | Bacterial Biotransformation [11] | Bacterial Biotransformation [12] | Bacterial Biotransformation [13] | Bacterial Biotransformation [14] | Bacterial Biotransformation [15] | Bacterial Biotransformation [16] | Bacterial Biotransformation [17] | Bacterial Biotransformation [18] | Bacterial Biotransformation [19] | Bacterial Biotransformation [20] |
| --- | --- | --- | --- | --- | --- | --- | --- | --- | --- | --- | --- | --- | --- | --- | --- | --- | --- | --- | --- | --- |
| CC[C@H](C)C(=O)O[C@H]1CCC=C2C=C[C@H](C)[C@H](CC[C@@H]3C[C@@H](O)CC(=O)O3)[C@H]21 [MEVASTATIN] | Compound metabolized | Compound metabolized | Compound metabolized | Compound metabolized | Compound metabolized | Compound metabolized | Compound metabolized | Compound metabolized | Compound metabolized | Compound metabolized | Compound metabolized | Compound metabolized | Compound metabolized | Compound metabolized | Compound metabolized | Compound metabolized | Compound metabolized | Compound metabolized | Compound metabolized | Compound metabolized |
| OC(CCN1CCCCC1)(c1ccccc1)C1CC2C=CC1C2 (centres undefined) [BIPERIDEN] | Compound NOT metabolized | Compound NOT metabolized | Compound NOT metabolized | Compound NOT metabolized | Compound NOT metabolized | Compound NOT metabolized | Compound NOT metabolized | Compound NOT metabolized | Compound metabolized | Compound NOT metabolized | Compound NOT metabolized | Compound NOT metabolized | Compound NOT metabolized | Compound NOT metabolized | Compound NOT metabolized | Compound NOT metabolized | Compound NOT metabolized | Compound NOT metabolized | Compound NOT metabolized | Compound NOT metabolized |
| C[C@@H]1CC[C@H]2[C@@H](C)C(=O)O[C@@H]3O[C@@]4(C)CC[C@@H]1[C@]32OO4 [ARTEMISININ] | Compound metabolized | Compound metabolized | Compound metabolized | Compound metabolized | Compound metabolized | Compound metabolized | Compound metabolized | Compound metabolized | Compound metabolized | Compound metabolized | Compound metabolized | Compound metabolized | Compound metabolized | Compound metabolized | Compound metabolized | Compound metabolized | Compound metabolized | Compound metabolized | Compound metabolized | Compound metabolized |
| CCN(CC)C(=O)/C(C#N)=C/c1cc(O)c(O)c([N+](=O)[O-])c1 [ENTACAPONE] | Compound metabolized | Compound metabolized | Compound metabolized | Compound metabolized | Compound metabolized | Compound metabolized | Compound metabolized | Compound metabolized | Compound metabolized | Compound metabolized | Compound metabolized | Compound metabolized | Compound metabolized | Compound metabolized | Compound metabolized | Compound metabolized | Compound metabolized | Compound metabolized | Compound metabolized | Compound metabolized |
| COc1ccc2[nH]c([S+]([O-])Cc3ncc(C)c(OC)c3C)nc2n1 (centres undefined) [TENATOPRAZOLE] | Compound metabolized | Compound metabolized | Compound metabolized | Compound metabolized | Compound metabolized | Compound metabolized | Compound metabolized | Compound metabolized | Compound metabolized | Compound metabolized | Compound metabolized | Compound metabolized | Compound metabolized | Compound metabolized | Compound metabolized | Compound metabolized | Compound metabolized | Compound metabolized | Compound metabolized | Compound metabolized |
| CC[C@@H](CO)NC(=O)[C@@H]1C=C2c3cccc4c3c(cn4C)C[C@H]2N(C)C1.O=C(O)/C=C\C(=O)O [METHYSERGIDE MALEATE] | Compound metabolized | Compound metabolized | Compound metabolized | Compound metabolized | Compound metabolized | Compound metabolized | Compound metabolized | Compound metabolized | Compound metabolized | Compound metabolized | Compound metabolized | Compound metabolized | Compound metabolized | Compound metabolized | Compound metabolized | Compound metabolized | Compound metabolized | Compound metabolized | Compound metabolized | Compound metabolized |
| CC(=O)Oc1ccc(C(c2ccc(OC(C)=O)cc2)c2ccccn2)cc1 [BISACODYL] | Compound metabolized | Compound metabolized | Compound metabolized | Compound metabolized | Compound metabolized | Compound metabolized | Compound metabolized | Compound metabolized | Compound metabolized | Compound metabolized | Compound metabolized | Compound metabolized | Compound metabolized | Compound metabolized | Compound metabolized | Compound metabolized | Compound metabolized | Compound metabolized | Compound metabolized | Compound metabolized |
| Cc1nc2n(c(=O)c1CCN1CCC(c3noc4cc(F)ccc34)CC1)CCCC2O (centres undefined) [PALIPERIDONE] | Compound metabolized | – | Compound metabolized | Compound metabolized | Compound NOT metabolized | Compound metabolized | Compound metabolized | Compound NOT metabolized | Compound metabolized | Compound NOT metabolized | Compound NOT metabolized | Compound metabolized | Compound metabolized | Compound metabolized | Compound metabolized | Compound metabolized | Compound metabolized | Compound metabolized | Compound metabolized | Compound metabolized |
